Measurements reported in PMC11822212, “High-throughput screening identifies Aurora kinase B as a critical therapeutic target for Merkel cell carcinoma” (Nature Communications, 2025).
Read-outs that look alike come from different tables or passages of the source.

Tests used:
[1] = system: NIH-3T3 cells; experiment: qHTS cell viability (CellTiter-Glo, 72 h; primary screen), control cell line; format: cell-based, mouse
[2] = system: HACAT cells; experiment: as above; format: cell-based, human
[3] = system: CRL-7250 cells; experiment: as above; format: cell-based
[4] = system: MKL-2 cells (VP-MCC); experiment: qHTS cell viability (CellTiter-Glo, 72 h; primary and follow-up small molecule screen); format: cell-based, human
[5] = system: HEK293T cells; experiment: qHTS cell viability (CellTiter-Glo, 72 h; primary screen), control cell line; format: cell-based, human
[6] = system: MCC26 cells (VN-MCC); experiment: qHTS cell viability (CellTiter-Glo, 72 h; primary and follow-up small molecule screen); format: cell-based, human
[7] = system: six MCC cell lines and four control cell lines; experiment: qHTS cell viability, all 10 cell lines screened; format: cell-based
[8] = system: control cell lines (HACAT, HEK293T, CRL-7250, NIH-3T3); experiment: qHTS cell viability, control cell lines as a group (mean AUC, Control.avg); format: cell-based
[9] = system: VP-MCC cell lines (WAGA, MKL-1, MKL-2); experiment: qHTS cell viability, VP-MCC cell lines as a group (mean AUC, VP.MCC.avg); format: cell-based, human
[10] = system: MCC13 cells (VN-MCC); experiment: qHTS cell viability (CellTiter-Glo, 72 h; primary and follow-up small molecule screen); format: cell-based, human
[11] = system: UISO cells (VN-MCC); experiment: as above; format: cell-based, human
[12] = system: WAGA cells (VP-MCC); experiment: as above; format: cell-based, human
[13] = system: MCC cell lines (WAGA, MKL-1, MKL-2, MCC13, MCC26, UISO); experiment: qHTS cell viability, all six MCC cell lines as a group (mean AUC, MCC.avg); format: cell-based, human
[14] = system: MKL-1 cells (VP-MCC); experiment: qHTS cell viability (CellTiter-Glo, 72 h; primary and follow-up small molecule screen); format: cell-based, human
[15] = system: VN-MCC cell lines (MCC13, MCC26, UISO); experiment: qHTS cell viability, VN-MCC cell lines as a group (mean AUC, VN.MCC.avg); format: cell-based, human
[16] = MIPE library, 11-point DRC, control cell line, sheet S2E
[17] = MIPE library, 11-point DRC, sheet S2E
[18] = MIPE library, Control AUC minus MCC AUC (therapeutic window), sheet S2E
[19] = MIPE library, mean AUC of control cell lines, sheet S2E
[20] = MIPE library, Control AUC minus VP-MCC AUC (therapeutic window), sheet S2E
[21] = MIPE library, mean AUC of VP-MCC cell lines, sheet S2E
[22] = MIPE library, mean AUC of six MCC cell lines, sheet S2E
[23] = MIPE library, Control AUC minus VN-MCC AUC (therapeutic window), sheet S2E
[24] = MIPE library, mean AUC of VN-MCC cell lines, sheet S2E

Compound: CNC(C)Cc1ccc2c(c1)OCO2.Cl (centres unmarked)
- NIH3T3_AUC [1]: 493.81
- HACAT_AUC [2]: 490.316
- CRL7250_AUC [3]: 491.585
- MKL2_AUC [4]: 446.935
- HEK293T_AUC [5]: 483.458
- MCC26_AUC [6]: 414.843
- Control-MCC [7]: 54.0945
- Control_Avg_AUC [8]: 489.792
- Control-VP-MCC [9]: 54.4283
- VP-MCC_Avg_AUC [9]: 435.364
- MCC13_AUC [10]: 451.345
- UISO_AUC [11]: 441.906
- WAGA_AUC [12]: 422.784
- MCC_Avg_AUC [13]: 435.698
- MKL1_AUC [14]: 436.372
- Control-VN-MCC [15]: 53.7607
- VN-MCC_Avg_AUC [15]: 436.031

Compound: CN(C)C(=O)Nc1ccc(Cl)c(Cl)c1 [Diuron]
- NIH3T3_AUC [1]: 473.572
- HACAT_AUC [2]: 457.965
- CRL7250_AUC [3]: 483.042
- Area under the dose-response curve (AUC) MKL-2 Replicate 1 [4]: 465.6
- Area under the dose-response curve (AUC) MKL-2 Replicate 2 [4]: 447.9
- Area under the dose-response curve (AUC) MKL-2 Replicate 3 [4]: 414.0
- MKL2_AUC [4]: 290.674
- HEK293T_AUC [5]: 497.019
- Area under the dose-response curve (AUC) MCC26 Replicate 1 [6]: 419.4
- Area under the dose-response curve (AUC) MCC26 Replicate 2 [6]: 420.5
- Area under the dose-response curve (AUC) MCC26 Replicate 3 [6]: 426.9
- MCC26_AUC [6]: 462.009
- Control-MCC [7]: 150.329
- Control_Avg_AUC [8]: 477.9
- Control-VP-MCC [9]: 283.207
- VP-MCC_Avg_AUC [9]: 194.692
- Area under the dose-response curve (AUC) MCC13 Replicate 1 [10]: 429.4
- Area under the dose-response curve (AUC) MCC13 Replicate 2 [10]: 471.6
- Area under the dose-response curve (AUC) MCC13 Replicate 3 [10]: 443.0
- MCC13_AUC [10]: 486.707
- Area under the dose-response curve (AUC) UISO Replicate 1 [11]: 424.2
- Area under the dose-response curve (AUC) UISO Replicate 2 [11]: 442.5
- Area under the dose-response curve (AUC) UISO Replicate 3 [11]: 396.8
- UISO_AUC [11]: 432.63
- Area under the dose-response curve (AUC) WAGA Replicate 1 [12]: 487.4
- Area under the dose-response curve (AUC) WAGA Replicate 2 [12]: 506.5
- Area under the dose-response curve (AUC) WAGA Replicate 3 [12]: 435.9
- WAGA_AUC [12]: 128.39
- MCC_Avg_AUC [13]: 327.57
- Area under the dose-response curve (AUC) MKL-1 Replicate 1 [14]: 459.9
- Area under the dose-response curve (AUC) MKL-1 Replicate 2 [14]: 477.0
- Area under the dose-response curve (AUC) MKL-1 Replicate 3 [14]: 426.1
- MKL1_AUC [14]: 165.013
- Control-VN-MCC [15]: 17.4511
- VN-MCC_Avg_AUC [15]: 460.449

Compound: C=C1C(=O)[C@]23[C@H](O)[C@H]1CC[C@H]2[C@@]12CO[C@]3(O)[C@@H](O)[C@@H]1C(C)(C)CC[C@@H]2O [Oridonin]
- NIH3T3_AUC [1, 16]: 414.657
- HACAT_AUC [2, 16]: 442.799
- CRL7250_AUC [3, 16]: 432.105
- MKL2_AUC [4, 17]: 318.538
- HEK293T_AUC [5, 16]: 399.439
- MCC26_AUC [6, 17]: 486.711
- Control-MCC [7, 18]: 32.9531
- Control_Avg_AUC [8, 19]: 422.25
- Control-VP-MCC [9, 20]: 79.3252
- VP-MCC_Avg_AUC [9, 21]: 342.925
- MCC13_AUC [10, 17]: 444.187
- UISO_AUC [11, 17]: 376.109
- WAGA_AUC [12, 17]: 351.193
- MCC_Avg_AUC [13, 22]: 389.297
- MKL1_AUC [14, 17]: 359.043
- Control-VN-MCC [15, 23]: -13.4189
- VN-MCC_Avg_AUC [15, 24]: 435.669

Compound: O=c1cc(-c2ccc(O)cc2)oc2cc(O)cc(O)c12 [Apigenin]
- NIH3T3_AUC [1, 16]: 470.997
- HACAT_AUC [2, 16]: 470.945
- CRL7250_AUC [3, 16]: 438.96
- MKL2_AUC [4, 17]: 357.96
- Area under the dose-response curve (AUC) MKL-2 Replicate 1 ([4]; follow-up screen, MKL-2, replicate 1): 530.0
- Area under the dose-response curve (AUC) MKL-2 Replicate 2 ([4]; follow-up screen, MKL-2, replicate 2): 507.8
- Area under the dose-response curve (AUC) MKL-2 Replicate 3 ([4]; follow-up screen, MKL-2, replicate 3): 497.7
- HEK293T_AUC [5, 16]: 459.794
- MCC26_AUC [6, 17]: 531.61
- Area under the dose-response curve (AUC) MCC26 Replicate 1 ([6]; follow-up screen, MCC26, replicate 1): 480.1
- Area under the dose-response curve (AUC) MCC26 Replicate 2 ([6]; follow-up screen, MCC26, replicate 2): 461.0
- Area under the dose-response curve (AUC) MCC26 Replicate 3 ([6]; follow-up screen, MCC26, replicate 3): 496.4
- Control-MCC [7, 18]: 22.9804
- Control_Avg_AUC [8, 19]: 460.174
- Control-VP-MCC [9, 20]: 92.024
- VP-MCC_Avg_AUC [9, 21]: 368.15
- MCC13_AUC [10, 17]: 501.623
- Area under the dose-response curve (AUC) MCC13 Replicate 1 ([10]; follow-up screen, MCC13, replicate 1): 539.3
- Area under the dose-response curve (AUC) MCC13 Replicate 2 ([10]; follow-up screen, MCC13, replicate 2): 539.6
- Area under the dose-response curve (AUC) MCC13 Replicate 3 ([10]; follow-up screen, MCC13, replicate 3): 514.9
- UISO_AUC [11, 17]: 485.478
- Area under the dose-response curve (AUC) UISO Replicate 1 ([11]; follow-up screen, UISO, replicate 1): 472.2
- Area under the dose-response curve (AUC) UISO Replicate 2 ([11]; follow-up screen, UISO, replicate 2): 489.3
- Area under the dose-response curve (AUC) UISO Replicate 3 ([11]; follow-up screen, UISO, replicate 3): 503.1
- WAGA_AUC [12, 17]: 368.999
- Area under the dose-response curve (AUC) WAGA Replicate 1 ([12]; follow-up screen, WAGA, replicate 1): 549.1
- Area under the dose-response curve (AUC) WAGA Replicate 2 ([12]; follow-up screen, WAGA, replicate 2): 497.7
- Area under the dose-response curve (AUC) WAGA Replicate 3 ([12]; follow-up screen, WAGA, replicate 3): 481.5
- MCC_Avg_AUC [13, 22]: 437.193
- MKL1_AUC [14, 17]: 377.491
- Area under the dose-response curve (AUC) MKL-1 Replicate 1 ([14]; follow-up screen, MKL-1, replicate 1): 510.1
- Area under the dose-response curve (AUC) MKL-1 Replicate 2 ([14]; follow-up screen, MKL-1, replicate 2): 521.0
- Area under the dose-response curve (AUC) MKL-1 Replicate 3 ([14]; follow-up screen, MKL-1, replicate 3): 502.5
- Control-VN-MCC [15, 23]: -46.0631
- VN-MCC_Avg_AUC [15, 24]: 506.237
